Here are results for 18 molecules from PubChem BioAssay (NCI).

Assay in all cases: NCI tumour cell line growth inhibition, 48 h
Assay [1] relates to EKVX NSCLC.
Assay [2] deals with HT29 colon.
In assay [3] the test system is M14 melanoma.
Assay [4] has as its system RXF 393 renal.
Assay [5] relates to SK-MEL-28 melanoma.
Assay [6] has as its system UACC-62 melanoma.
For assay [7], the system named is OVCAR-4 ovarian.
In assay [8] the test system is MDA-MB-435.

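Each compound was tested at five concentrations against cells in 96-well plates for 48 hours. The concentration for full growth arrest is given as TGI.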

For the molecule `C/C(CC(=O)NCCc1ccccc1)=N\NC(=O)C[n+]1ccccc1`, the TGI in assay [1], in assay [2], in assay [3], in assay [4], in assay [5] and in assay [6] was greater than 100 µM throughout.

`CSC(C1c2ccccc2N(c2ccc(C)cc2)c2[nH]c(=O)n(C)c(=O)c21)S(=O)(=O)c1ccc(C)cc1` (configuration not stated): the TGI in assay [1], in assay [2], in assay [3], in assay [7], in assay [5] and in assay [6] was greater than 100 µM throughout.

`N#Cc1cccnc1Cl`: the TGI in assay [1], in assay [2], in assay [3], in assay [7], in assay [4] and in assay [5] was greater than 100 µM in each case. Further, in assay [6], the TGI is greater than 100 µM.

Regarding `CCOC(=O)c1ccc(C)c(N=NN(C)C)c1`, the TGI in assay [1], in assay [2], in assay [3], in assay [7], in assay [4] and in assay [5] was greater than 100 µM each time. The molecule further came in with a TGI in assay [6] greater than 100 µM.

With `O=C(Nc1c(Cl)cc([N+](=O)[O-])cc1Cl)C(=O)C(C1OC(=O)c2ccccc21)[N+](=O)[O-]` (configuration not stated), the TGI in assay [1], in assay [2], in assay [3], in assay [7], in assay [4] and in assay [5] was greater than 100 µM in each case. Also, the TGI in assay [6] is greater than 100 µM.

On to `O=C1CCCC[C@H]1[C@H]1CCC[C@@H]([C@H]2CCCCC2=O)C1=O`, for which the TGI in assay [1], in assay [2], in assay [3], in assay [7], in assay [4] and in assay [5] was greater than 100 µM each time. Also, the TGI in assay [6] is greater than 100 µM.

In the case of `N#CC1CC2(C1)OCCS2` (configuration not stated), the TGI in assay [1], in assay [2], in assay [3], in assay [7], in assay [4] and in assay [5] was greater than 100 µM throughout. The TGI in assay [6] was greater than 100 µM.

Consider `O=C1/C(=C/c2cccc([N+](=O)[O-])c2)COc2ccc(Br)cc21`, for which the TGI in assay [1], in assay [2], in assay [4] and in assay [5] was greater than 100 µM throughout.

As for `O=C(NCO)NCOCn1c(=O)n(CO)c(=O)n(CO)c1=O`, the TGI was greater than 100 µM in assay [1]; 99.7 µM in assay [2]; 31.7 µM in assay [3]; greater than 77 µM in assay [7]; 30.8 µM in assay [4]; 45.1 µM in assay [5]. In addition, the TGI in assay [6] turned out to be 36.8 µM.

On to `O=C1NC2OC(C(O)CO)C(O)C2O1` (configuration not stated), for which the TGI in assay [1], in assay [2], in assay [3], in assay [7], in assay [5] and in assay [6] was greater than 100 µM throughout.

`C=CC/C=C/C/C=C/CCCCCCCc1cccc(O)c1C(=O)O`: the TGI was greater than 100 µM in assay [1]; greater than 100 µM in assay [2]; greater than 100 µM in assay [3]; greater than 100 µM in assay [7]; 89.6 µM in assay [5]; greater than 100 µM in assay [6].

Consider `S=C1OC2CCCC[C@H]2O1` (some centres not stated), for which the TGI in assay [1], in assay [2], in assay [3], in assay [7], in assay [4] and in assay [5] was greater than 100 µM each time. In assay [6], this molecule returned a TGI greater than 100 µM.

Consider `COc1cc(NC(C)CCCN)c2nccc(C)c2c1` (configuration not stated), for which the TGI in assay [1] was greater than 100 µM; in assay [2] it was greater than 100 µM; in assay [3], 33.7 µM; in assay [8], 30.4 µM; in assay [7], 59.9 µM; in assay [5], 35.3 µM. This molecule yielded a TGI in assay [6] of 35.8 µM.

In the case of `O=C1CC2CCCC23CC2(CCN13)OCCO2` (configuration not stated), the TGI in assay [1], in assay [2], in assay [3], in assay [7], in assay [4] and in assay [5] was greater than 100 µM in each case. In assay [6], the TGI was greater than 100 µM.

Take `CC(C)(C)c1cc(C(O)(C(F)(F)F)C(F)(F)F)c2c(c1)C(C(F)(F)F)(C(F)(F)F)OC(C(C)(C)C)N2` (configuration not stated): the TGI in assay [1] is 17.1 µM; in assay [2] it was 9.37 µM; in assay [3] it was 18.2 µM; in assay [7], 18 µM; in assay [4], 6.51 µM; in assay [5], 18.8 µM. The TGI in assay [6] worked out at 14.4 µM.

On to `CCOC(=O)NC(=O)c1cn(CCCOC(=O)CCCCCCCCCCC(=O)OCCCn2cc(C(=O)NC(=O)OCC)c(=O)[nH]c2=O)c(=O)[nH]c1=O`, for which the TGI in assay [1], in assay [2], in assay [3], in assay [7], in assay [5] and in assay [6] was greater than 100 µM each time.

With `O=C1CSC(/C(=N/Nc2ccccc2)c2nc3ccccc3[nH]2)=N1`, the TGI in assay [1] is greater than 100 µM; in assay [2], greater than 100 µM; in assay [3], greater than 100 µM; in assay [7], greater than 100 µM; in assay [5], 79 µM; in assay [6], greater than 100 µM.

Consider `O=C(O)[C@H](NS(=O)(=O)c1ccc([N+](=O)[O-])cc1)c1ccccc1`, for which the TGI in assay [1], in assay [2], in assay [3], in assay [7], in assay [4] and in assay [5] was greater than 100 µM each time. The TGI in assay [6] was greater than 100 µM.
